The numbers were not newly measured in patent publication EP2992880A1, “Use of heme oxygenase 1 inducers and cannabinoid 2 receptor or delta-opioid receptor agonists in inflammatory pain” (Fundació Institut de Recerca de l'Hospital de la Santa Creu …, priority 2014, dated 2016), which cites them from elsewhere.

For series [1] the following is noted: visceral pain; cited from earlier work.
For series [2] the following is noted: neuropathic pain; cited from earlier work.

For the substance “cobalt (III) protoporphyrin IX chloride [CoPP]”, the “effect of CoPP on the antinociceptive effect of morphine treatment” value in series [1] is “does not alter”. Further, in series [2], the “effect of CoPP on the antinociceptive effect of DPDPE” value is on record as “decreased”, the “effect of CoPP on the antinociceptive effect of JWH-015” value is on record as “decreased” and the “effect of CoPP on the antinociceptive effect of morphine” value is on record as “increases”.
